{"source": "paper PMC10471769", "about": "“Biochemical analysis of Komagataella phaffii oxidative folding proposes novel regulatory mechanisms of disulfide bond formation in yeast” (Scientific Reports, 2023)", "key": {"[1]": {"biological_target": "T1, monomeric K. phaffii Ero1 (Komagataella phaffii, UniProt F2QNN1, C136A)", "T1 construct": "His-tagged 1-384 active core, C-terminal amphipathic helix removed, monomer; E. coli BL21(DE3) with CyDisCo", "T1 sequence (F2QNN1 entry or part of it C136A)": "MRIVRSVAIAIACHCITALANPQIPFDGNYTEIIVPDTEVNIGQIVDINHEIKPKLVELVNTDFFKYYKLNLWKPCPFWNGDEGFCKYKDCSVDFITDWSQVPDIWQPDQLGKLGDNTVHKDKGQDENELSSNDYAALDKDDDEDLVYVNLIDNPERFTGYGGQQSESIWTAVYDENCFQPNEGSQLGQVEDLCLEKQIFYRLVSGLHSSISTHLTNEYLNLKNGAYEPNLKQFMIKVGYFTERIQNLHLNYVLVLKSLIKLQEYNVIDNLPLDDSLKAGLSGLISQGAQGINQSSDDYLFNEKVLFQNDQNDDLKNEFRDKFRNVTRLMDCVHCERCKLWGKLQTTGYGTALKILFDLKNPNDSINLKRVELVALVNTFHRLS", "test": "absorbance at […] nm after reflavination and size exclusion", "assay_type": "binding", "details": "stoichiometry, no affinity constant; 1:2 molar excess FAD+ overnight on ice, phosphate pH 7.0"}, "[2]": {"biological_target": "T2, K. phaffii Ero1-Pdi1 complex (wild type) (Komagataella phaffii, UniProt F2QNN1)", "T2 construct": "1:1 disulfide-linked heterodimer (Ero1 Cys136-Pdi1 Cys404); His-tagged Ero1 1-384 core without C-terminal amphipathic helix (45 kDa) plus Pdi1 (56 kDa); E. coli BL21(DE3) with customized CyDisCo; with Protein disulfide-isomerase", "T2 sequence (F2QNN1 entry or part of it)": "as the sequence (F2QNN1 entry or part of it C136A) above, with A136C counted along it", "T2 sequence (F2QY05 entry or part of it, further chain)": "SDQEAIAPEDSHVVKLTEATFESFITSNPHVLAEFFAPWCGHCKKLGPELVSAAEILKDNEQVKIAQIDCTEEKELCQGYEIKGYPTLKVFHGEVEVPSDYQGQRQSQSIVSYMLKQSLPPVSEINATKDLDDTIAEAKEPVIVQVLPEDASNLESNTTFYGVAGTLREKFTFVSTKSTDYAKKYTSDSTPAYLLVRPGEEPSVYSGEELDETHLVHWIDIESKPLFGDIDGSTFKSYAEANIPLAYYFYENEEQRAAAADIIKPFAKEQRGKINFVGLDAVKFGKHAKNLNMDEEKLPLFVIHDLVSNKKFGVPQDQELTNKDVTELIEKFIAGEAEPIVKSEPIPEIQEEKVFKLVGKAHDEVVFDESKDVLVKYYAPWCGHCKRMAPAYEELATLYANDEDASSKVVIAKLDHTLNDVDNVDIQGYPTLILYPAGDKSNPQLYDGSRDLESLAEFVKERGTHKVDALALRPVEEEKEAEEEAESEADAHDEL", "test": "absorbance at […] nm after reflavination and size exclusion", "assay_type": "binding", "details": "stoichiometry, no affinity constant; 1:2 molar excess FAD+ overnight on ice, phosphate pH 7.0"}}, "data": [{"smiles": "Cc1cc2nc3c(=O)[nH]c(=O)nc-3n(C[C@H](O)[C@H](O)[C@H](O)COP(=O)(O)OP(=O)(O)OC[C@H]3O[C@@H](n4cnc5c(N)ncnc54)[C@H](O)[C@@H]3O)c2cc1C", "note": "[FAD+]", "values": [{"measurement": "FAD+ molecules per monomer", "setting": "[1]", "value": "0.85 ± 0.04", "unit": "molecules per monomer"}, {"measurement": "FAD+ molecules per complex", "setting": "[2]", "value": "0.93 ± 0.05", "unit": "molecules per complex"}]}]}
